# Source: patent US9486440B2, “Uses of indole-ketones or indolidones as neuro-protective drugs” (UNIVERSITY OF MACAU, priority 2011, dated 2016)
# “Also recorded” adds a separate entry of the source.
# Experiments:
# [1] = tested on: intersegmental-vessel (ISV) formation; experiment: Intersegmental-vessel formation in Tg(fli-1:EGFP) zebrafish; format: in vivo; conditions: 1 dpf embryos treated 48 hours; SU4312 3-30 μM, PTK787/ZK222584 0.3-3 μM, VRI 0.1-0.3 μM, SU5416 0.3-1 μM
# Method: (§1) Wild-type zebrafish (AB strain) and Tg (fli-1:EGFP) transgenic zebrafish were maintained as described in the Zebrafish Handbook (Westerfield, 1993). Zebrafish embryos were generated by natural pair-wise mating (3-12 months old) and raised at 28.5° C. in embryo medium (13.7 mM NaCl, 540 μM KCl, pH 7.4, 25 μM Na2HPO4, 44 μM KH2PO4, 300 μM CaCl2, 100 μM MgSO4, 420 μM NaHCO3, pH 7.4). […] An equal concentration of DMSO in embryo medium was used as vehicle control in each experiment.
# (§2) After drug treatment, zebrafish were removed from microplate and observed for gross morphological changes of blood vessel under a fluorescence microscope (Olympus am Motorized Inverted Microscope, Japan) equipped with a digital camera (DP controller, Soft Imaging System, Olympus). Images were analyzed with Axiovision 4.2 and Adobe Photoshop 7.0.
# Wild-type zebrafish (AB strain) and Tg(fli-1:EGFP) transgenic zebrafish were maintained as described in the Zebrafish Handbook (Westerfield, 1993). Zebrafish embryos were generated by natural pair-wise mating (3-12 months old) and were raised at 28.5° C. in embryo medium (13.7 mM NaCl, 540 μM KCl, pH 7.4, 25 μM Na2HPO4, 44 μM KH2PO4, 300 μM CaCl2, 100 μM MgSO4, 420 μM NaHCO3, pH 7.4). […] Equal concentration of DMSO in embryo medium was used as vehicle control in each experiment.
# as §2, with “from the” for “from”
# [2] = tested on: zebrafish larvae; experiment: Locomotion behavioral test of zebrafish larvae; format: in vivo; conditions: for MPTP-induced deficit of swimming behavior (total distance travelled): 200 μM MPTP 2 days, then 10 μM MPTP plus drug 3 days, L-deprenyl 20 μM, L-dopa 150 μM
# Method: as §1
# Thus the MPTP exposure needs to last 5 day from 1 dpf. […] Thus subsequent locomotion behavioral studies were done with 200 μM MPTP for treatment for 2 days at 1 dpf then replacing insult with 10 μM MPTP for incubation for another 3 days.
# (§3) After drug treatment, zebrafish larvae at 6 dpf were transferred into 96-well plates (1 fish/well and 12 larvae/group). Fishes responded with excessive stress reaction (such as rapid and disorganized swimming or immobility for 2 min) due to the handling and monitoring of the behavior were discarded. The experiments were performed in a calm enclosed area. The larvae were allowed to habituate to the new environment for 30 min prior to experiments. Behavior was monitored by an automated video tracking system (Viewpoint, ZebraLab, LifeSciences). The 96-well plates and camera were housed inside a Zebrabox and the swimming pattern of each fish was recorded for 10 min and repeated 3 times, once every other 10 min. The total distance moved was defined as the distance (in cm) that the fish had moved during one session (10 min).
# Normally as late as 3 dpf, zebrafish larvae show very little spontaneous swimming, but by 5 dpf they spontaneously swim longer distances and independently search for food. The MPTP exposure therefore needs to last 5 days from 1 dpf. […] Thus subsequent locomotion behavioral studies were performed with 200 μM MPTP for 2-day treatment at 1 dpf then replacing with media containing 10 μM MPTP for another 3-day incubation.
# as §3, with “The larvae were discarded due to” for “Fishes responded with”, “reaction to the handling and monitoring of behavior” for “reaction”, “min).” for “min) due to the handling and monitoring of the behavior were discarded.”, “sealed” for “enclosed”, “min. Swimming behavior” for “min prior to experiments. Behavior”, “for” for “repeated”
SMILES,inhibition of intersegmental-vessel (ISV) formation [1],MPTP-induced deficit of swimming behavior (total distance travelled) [2],"swimming behavior of normal zebrafish larvae, drug alone ([2]; without MPTP)","swimming behavior of normal zebrafish larvae, drug alone ([2]; zebrafish, in vivo)"
"Cc1cc(C)c(/C=C2\C(=O)Nc3ccccc32)[nH]1 [SU5416, (3Z)-3-[(3,5-dimethyl-1H-pyrrol-2-yl)methylidene]-1,3-dihydro-2H-indol-2-one]",did not show this activity,ameliorated the MPTP-induced deficit of swimming behavior,–,–
"CN(C)c1ccc(C=C2C(=O)Nc3ccccc32)cc1 [SU4312, 3-[4-(dimethylamino)benzylidenyl]indolin-2-one]",showed differential concentration-dependent inhibition of ISV formation,ameliorated MPTP-induced deficit of swimming behavior,Neither SU4312 nor PTK787/ZK222584 treatment alone notably altered the swimming behavior,–
Clc1ccc(Nc2nnc(Cc3ccncc3)c3ccccc23)cc1 [PTK787/ZK222584],showed differential concentration-dependent inhibition of ISV formation; also recorded: at 1 μM inhibited angiogenesis with the potency similar to that of SU4312 at 30 μM,but not PTK787/ZK222584 ameliorated MPTP-induced deficit of swimming behavior,–,Neither SU4312 nor PTK787/ZK222584 treatment alone notably altered the swimming behavior
